From US20160067209A1, “PTEROCARPAN COMPOUND OR PHARMACEUTICALLY ACCEPTABLE SALT THEREOF AND PHARMACEUTICAL COMPOSITION FOR PREVENTION OR TREATMENT OF METABOLIC DISEASE OR COMPLICATION THEREOF, OR FOR ANTIOXIDANT CONTAINING THE SAME AS AN ACTIVE INGREDIENT” (KOREA RESEARCH INSTITUTE OF BIOSCIENCE AND BIOTECHNOLOGY, priority 2010, published 2016) come the findings set out here.

Structures are written as SMILES.

One test addresses T1, hACAT-1 (Homo sapiens, UniProt P35610).
T1 construct: made in house; host or cells: Hi5 insect cells (baculovirus; virus produced in sf9), microsome fraction
T1 sequence (P35610 1-550): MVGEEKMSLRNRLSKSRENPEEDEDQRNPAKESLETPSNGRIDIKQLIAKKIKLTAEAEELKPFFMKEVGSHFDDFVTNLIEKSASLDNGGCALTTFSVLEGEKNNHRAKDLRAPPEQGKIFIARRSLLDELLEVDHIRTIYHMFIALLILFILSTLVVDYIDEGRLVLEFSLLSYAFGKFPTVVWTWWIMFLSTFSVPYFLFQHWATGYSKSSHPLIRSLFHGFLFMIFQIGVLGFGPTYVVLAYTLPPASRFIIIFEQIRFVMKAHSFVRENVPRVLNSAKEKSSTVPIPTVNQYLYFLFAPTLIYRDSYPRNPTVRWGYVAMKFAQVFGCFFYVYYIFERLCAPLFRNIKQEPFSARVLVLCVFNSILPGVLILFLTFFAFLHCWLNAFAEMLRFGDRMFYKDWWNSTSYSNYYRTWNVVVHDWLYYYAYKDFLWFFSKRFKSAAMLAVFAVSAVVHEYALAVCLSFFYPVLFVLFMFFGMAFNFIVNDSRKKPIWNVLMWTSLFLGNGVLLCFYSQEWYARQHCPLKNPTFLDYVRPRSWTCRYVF
As to the kind of experiment: hACAT inhibitory activity, microsome fraction of Hi5 cells, [1-14C] oleoyl-CoA substrate. The class given is biochemical. The note with it: for inhibition at 100 µM: read-out: Inhibitory activity at 100 μM (%) hACAT1. On the procedure:
(§1) cDNA of each hACAT-1 and hACAT-2 obtained by human liver cDNA library screening was inserted into baculovirus vector, which was then introduced into the insect cell sf9 to produce target virus. The recombinant virus of each hACAT-1 and hACAT-2 was separated by plaque purification and then amplified three times to increase titer of viral stock.
(§2) To separate microsome fractions from the cultured Hi5 cells over-expressing hACAT-1 and hACAT-2, centrifugation was performed at 500 rpm for 15 minutes. The collected cells were lysed by quick-freezing/quick-thawing in hypotonic buffer, followed by ultracentrifugation at 100,000 rpm for one hour. The obtained microsome fractions were suspended in hypotonic buffer to make the protein concentration to be 8 mg/ml, which was stored in −70° C. freezer until use.
(§3) Human ACAT (hACAT) activity was measured by the method of Brecher & Chan (P. Brecher and C. Chan, Biochem. Biophys. Acta, 1980, 617: 458) with slight modification using [1-^14C] oleoyl-CoA (56.0 ρCi/μmol; Amersham) as a substrate. 10 μl of each of the pterocarpan compounds represented by Formula 2-Formula 5 obtained in Example 1 in dimethylsulfoxide (DMSO) was mixed with 4.0 μl of the microsome solution obtained in step 1, 20.0 μl a of assay buffer (0.5 M KH2PO4, 10 mM DTT, pH 7.4; Sigma), 15.0 μl of bovine serum albumin (BSA, stock solution conc. 40 mg/ml; Sigma), 2.0 μl of cholesterol (stock solution conc. 20 mg/ml; Sigma), and 41.0 μl of distilled water, followed by pre-reaction at 37° C. for 15 minutes. In this assay, the negative control was used the DMSO alone, and the positive control was used a known ACAT inhibitor, oleic acid anilide.
(§4) Eight (8) μl of [1-^14C] oleoyl-CoA (0.05 μCi, final conc. 10.0 μM) was added to the above reaction mixture, followed by reaction at 37° C. for 30 minutes. The reaction was terminated by adding 1 ml of isopropanol:heptane mixed solution (4:1(v/v)). Six hundred (600) μl of heptane and 200 μl of 0.1 M KH2PO4 (pH 7.4) were added thereto and the reaction mixture was vortexed vigorously and centrifuged at 300 rpm for 5 minutes. The obtained upper phase (100 μl) was added in a scintillation vial, to which 4 ml of scintillation solution (Lipoluma, Lumac Co.) were added. Radioactivity of the upper phase was measured by 1450 Microbeta liquid scintillation counter (Wallacoy).
(§5) hACAT activity was calculated based on the radioactivity, the amount of synthesized cholesteryl oleated, measured above and expressed as a defined unit, pico mole per 1 mg of protein for 1 minute (pico mole/minute/mg protein).

For a further test, the target named is T2, hACAT-2 (Homo sapiens, UniProt O75908).
T2 construct: made in house; host or cells: Hi5 insect cells (baculovirus; virus produced in sf9), microsome fraction
T2 sequence (O75908 1-522): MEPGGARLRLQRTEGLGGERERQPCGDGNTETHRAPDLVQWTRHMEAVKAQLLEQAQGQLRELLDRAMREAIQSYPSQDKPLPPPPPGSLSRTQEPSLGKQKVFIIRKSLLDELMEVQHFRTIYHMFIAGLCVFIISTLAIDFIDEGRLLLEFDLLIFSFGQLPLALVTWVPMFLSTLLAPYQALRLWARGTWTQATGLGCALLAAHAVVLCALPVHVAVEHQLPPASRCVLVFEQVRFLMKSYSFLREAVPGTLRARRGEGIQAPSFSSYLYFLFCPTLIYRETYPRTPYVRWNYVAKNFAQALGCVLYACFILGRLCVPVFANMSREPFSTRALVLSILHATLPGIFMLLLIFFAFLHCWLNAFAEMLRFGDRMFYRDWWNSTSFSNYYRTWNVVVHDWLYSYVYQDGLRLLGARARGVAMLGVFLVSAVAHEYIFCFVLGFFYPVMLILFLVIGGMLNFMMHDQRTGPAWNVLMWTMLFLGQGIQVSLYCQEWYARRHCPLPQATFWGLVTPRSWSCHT
The test is described as above. The class given is biochemical. The following applies: read-out: Inhibitory activity at 100 μM (%) hACAT2. On the procedure:
as §1, §2, §3, §4, §5

Another test has as its system LDL. As to the kind of experiment: LDL anti-oxidative activity, Cu-mediated LDL-oxidation, TBA method. Format: biochemical, human. The following applies: CuSO4, 37° C., 4 hours, MDA by TBA; read-out: LDL-oxidation inhibitory activity (IC50). On the procedure:
Cu^2+ has been known to induce LDL-oxidation (Cu-mediated LDL-oxidation). In this invention, dialdehyde, the oxide of unsaturated fatty acid, generated during LDL-oxidation was measured by TBA (thiobarbituric acid) method to investigate the anti-oxidative activity of the pterocarpan compound isolated from soybean leaves (Packer, L. Ed. (1994) Methods in Enzymology Vol. 234, Oxygen radicals in biological systems Part D. Academic press, San Diego).
Three hundred (300) ml of human plasma were centrifuged at 100,000×g for 24 hours to remove floating VLDL/chylomicron layer in upper part. The specific gravity of the remaining solution was adjusted to […], followed by re-centrifugation at 100,000×g for 24 hours, and 25 ml of the floating LDL (1.5-2.5 mg protein/ml) in upper layer was separated.
Twenty (20) μl of the separated LDL (protein conc. 50-100 μg/ml) was mixed with 210 μl of 10 mM PBS, to which 10 μl of each of the pterocarpan compounds represented by Formula 2-Formula 5 of the present invention was added respectively.
The pterocarpan compounds were dissolved in DMSO, which were further diluted properly for the experiment. In this assay, the negative control was used the DMSO only, while the positive control was used a known LDL-antioxidant, probucol.
Ten (10) μl of 0.25 mM CuSO4 was added to the above reaction mixture, followed by reaction at 37° C. for 4 hours. The reaction was terminated by adding 1 ml of 20% trichloroacetic acid (TCA) solution. One (1) ml of 0.67% thiobarbituric acid (TBA) dissolved in 0.05 N NaOH solution was added thereto, followed by stirring for 10 seconds. Then, the reaction mixture was heated at 95° C. for 5 minutes to induce color development. The solution was cooled down with iced water and centrifuged at 3,000 rpm for 5 minutes to separate supernatant. The amount of malondialdehyde (MDA) generated by the color development was calculated by measuring optical density at 540 nm (OD540) with UV-VIS Spectrophotometer.
PBS standard solution containing 0-10 nmol MDA was prepared by […] with tetramethoxypropane malonaldehyde bis (dimethylacetal) stock solution. Color development was induced with the standard solution, followed by measuring OD540. The generated MDA was quantified by using the standard curve in experiments with the pterocarpan compound of the present invention.

By IC50 is commonly meant the concentration at which inhibition is half-maximal. With `COc1cc(O)cc2oc(=O)c3c4ccc(O)cc4oc3c12` [Formula 4, isotrifoliol], the inhibition at 100 µM on hACAT-1 worked out at 14.9%; at hACAT-2 it was 7.9%. Besides, the concentration for half-maximal inhibition (IC50) in the test on LDL stood at 4.5 µM.

With `CC(C)=CCc1c(O)ccc2c1oc(=O)c1c3ccc(O)cc3oc21` [Formula 5, phaseol], on hACAT-1 (100 µM), the “Inhibitory activity at 100 μM (%) hACAT1” value came out at 85.9%. Moreover, the figures for the inhibition at 100 µM at hACAT-1 and at hACAT-2 were 85.8% and 67.4%, respectively. The IC50 with LDL came to 1 µM.

Consider `C=C(C)c1cc2cc3c(cc2o1)OC[C@@]1(O)c2ccc(O)cc2O[C@@H]31` [Formula 2, (6aS,11aS)-2-(pro-1-pene-2-yl)-6a,11a-dihydro-6H-benzofuro[3,2-c]furo[3,2-g]chromene-6a,9-diol], for which the inhibition at 100 µM turned out to be 29.7% on hACAT-1 and 22.9% at hACAT-2. The IC50 with LDL is 43 µM.

Regarding `COc1ccc2c(c1)O[C@H]1c3c(cc(O)c(CC=C(C)C)c3OC)OC[C@@]21O` [Formula 3], the figures for the inhibition at 100 µM at hACAT-1 and at hACAT-2 were 35.2% and 20.3%, respectively. Moreover, the IC50 with LDL worked out at 51.8 µM.
